The text below walks through data of ChEMBL document CHEMBL2331162, “Biophysical fragment screening of the β1-adrenergic receptor: identification of high affinity arylpiperazine leads using structure-based drug design” (J Med Chem, 2013).

The structures appear in SMILES notation. The source made the active and inactive calls. No cut-off for these calls is given here.

The target in test [1] is Beta-1 adrenergic receptor (Homo sapiens, UniProt P08588). The experiment in a line: Displacement of [3H]dihydroalprenolol from human wild type beta1 adrenergic receptor expressed in HEK293 cell membranes after 90 mins by liquid scintillation counting analysis. A general note: Displacement assays read how much labelled ligand stays bound in the presence of the test substance.
Chain of Beta-1 adrenergic receptor (P08588 whole entry): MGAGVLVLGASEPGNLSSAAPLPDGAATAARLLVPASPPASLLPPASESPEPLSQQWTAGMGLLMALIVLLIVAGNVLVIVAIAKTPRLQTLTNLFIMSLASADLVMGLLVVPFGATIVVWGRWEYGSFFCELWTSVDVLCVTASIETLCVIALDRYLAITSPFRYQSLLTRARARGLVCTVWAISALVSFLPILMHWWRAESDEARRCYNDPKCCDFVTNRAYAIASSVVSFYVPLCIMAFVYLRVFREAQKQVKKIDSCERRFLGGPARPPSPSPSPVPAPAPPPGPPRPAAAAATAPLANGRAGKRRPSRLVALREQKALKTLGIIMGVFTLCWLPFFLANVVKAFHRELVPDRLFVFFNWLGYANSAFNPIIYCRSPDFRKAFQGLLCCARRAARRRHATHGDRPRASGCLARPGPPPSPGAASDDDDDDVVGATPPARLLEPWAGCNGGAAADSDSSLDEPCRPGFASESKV

Test [2] has as its target T1, Muscarinic acetylcholine receptor M4 (Homo sapiens) (UniProt P08173).
T1 sequence (whole entry): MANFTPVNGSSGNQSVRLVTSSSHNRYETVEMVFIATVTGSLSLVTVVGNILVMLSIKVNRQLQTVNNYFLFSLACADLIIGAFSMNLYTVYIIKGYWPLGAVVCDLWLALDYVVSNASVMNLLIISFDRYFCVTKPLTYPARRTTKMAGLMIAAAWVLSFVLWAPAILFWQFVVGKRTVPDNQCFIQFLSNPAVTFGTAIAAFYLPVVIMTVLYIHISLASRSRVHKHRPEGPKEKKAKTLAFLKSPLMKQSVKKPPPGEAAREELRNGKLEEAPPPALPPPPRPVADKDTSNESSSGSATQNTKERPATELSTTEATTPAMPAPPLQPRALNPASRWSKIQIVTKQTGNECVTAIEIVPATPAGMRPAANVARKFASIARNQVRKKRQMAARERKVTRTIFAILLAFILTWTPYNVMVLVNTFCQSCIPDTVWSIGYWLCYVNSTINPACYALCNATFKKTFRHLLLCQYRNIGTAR
The experiment in a line: Agonist activity at human muscarinic M4 receptor expressed in CHO cells assessed as stimulation of ERK1/2 phosphorylation after 15 mins by Alphascreen Surefire assay. The format is cell-based. On the technique in general: Bead proximity is the source of the signal in Alpha formats.

The target of test [3] is T2, Muscarinic acetylcholine receptor M3 (Homo sapiens, UniProt P20309). Nature of the test: Agonist activity at human muscarinic M3 receptor expressed in CHO cells assessed as stimulation of ERK1/2 phosphorylation after 15 mins by Alphascreen Surefire assay. The format is cell-based.
Target sequence in this assay (P20309 whole entry, looked up): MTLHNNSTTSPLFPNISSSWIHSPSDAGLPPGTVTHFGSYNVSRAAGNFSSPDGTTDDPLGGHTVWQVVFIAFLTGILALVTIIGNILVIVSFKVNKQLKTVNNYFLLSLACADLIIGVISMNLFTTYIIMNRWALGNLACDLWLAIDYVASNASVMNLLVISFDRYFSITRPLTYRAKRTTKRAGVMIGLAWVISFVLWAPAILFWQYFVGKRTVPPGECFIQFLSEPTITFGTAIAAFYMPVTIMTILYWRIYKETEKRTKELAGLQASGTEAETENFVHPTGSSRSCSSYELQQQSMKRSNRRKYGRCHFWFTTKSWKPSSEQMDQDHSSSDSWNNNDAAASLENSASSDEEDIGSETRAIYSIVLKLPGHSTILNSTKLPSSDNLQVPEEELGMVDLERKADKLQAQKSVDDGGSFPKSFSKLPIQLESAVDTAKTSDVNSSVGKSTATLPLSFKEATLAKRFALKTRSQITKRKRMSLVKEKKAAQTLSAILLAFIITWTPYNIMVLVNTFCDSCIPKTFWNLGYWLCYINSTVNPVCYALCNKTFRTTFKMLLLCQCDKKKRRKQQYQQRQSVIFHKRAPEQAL
In test [4] the target is T3, Muscarinic acetylcholine receptor M2 (Homo sapiens) (UniProt P08172).
T3 sequence (whole entry): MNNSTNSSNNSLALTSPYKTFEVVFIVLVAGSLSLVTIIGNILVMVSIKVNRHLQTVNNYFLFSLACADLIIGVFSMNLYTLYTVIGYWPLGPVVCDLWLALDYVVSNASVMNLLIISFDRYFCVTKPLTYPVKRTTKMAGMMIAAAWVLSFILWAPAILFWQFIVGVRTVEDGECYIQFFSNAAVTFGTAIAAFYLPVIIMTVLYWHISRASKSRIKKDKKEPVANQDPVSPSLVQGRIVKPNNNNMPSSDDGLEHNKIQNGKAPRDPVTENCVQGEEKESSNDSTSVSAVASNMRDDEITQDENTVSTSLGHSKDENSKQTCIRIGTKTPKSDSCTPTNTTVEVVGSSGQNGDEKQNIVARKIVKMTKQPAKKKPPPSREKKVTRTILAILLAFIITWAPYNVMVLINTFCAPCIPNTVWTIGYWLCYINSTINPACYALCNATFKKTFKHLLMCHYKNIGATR
Nature of the test: Agonist activity at human muscarinic M2 receptor expressed in CHO cells assessed as stimulation of ERK1/2 phosphorylation after 15 mins by Alphascreen Surefire assay. The format is cell-based.

Test [5] has as its target T4, Muscarinic acetylcholine receptor M1 (Homo sapiens) (UniProt P11229).
T4 sequence (whole entry): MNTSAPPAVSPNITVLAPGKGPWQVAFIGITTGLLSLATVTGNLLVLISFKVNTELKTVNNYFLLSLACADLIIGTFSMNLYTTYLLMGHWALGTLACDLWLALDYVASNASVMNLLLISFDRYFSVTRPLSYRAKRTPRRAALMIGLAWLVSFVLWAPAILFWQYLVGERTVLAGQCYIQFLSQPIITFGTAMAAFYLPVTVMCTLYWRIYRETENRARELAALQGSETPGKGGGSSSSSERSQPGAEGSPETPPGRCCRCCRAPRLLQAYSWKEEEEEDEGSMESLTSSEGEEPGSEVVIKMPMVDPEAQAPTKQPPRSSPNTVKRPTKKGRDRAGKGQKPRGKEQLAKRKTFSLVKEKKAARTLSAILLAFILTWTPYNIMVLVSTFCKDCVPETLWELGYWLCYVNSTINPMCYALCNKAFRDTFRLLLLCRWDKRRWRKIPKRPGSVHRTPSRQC
Nature of the test: Agonist activity at human muscarinic M1 receptor expressed in CHO cells assessed as stimulation of ERK1/2 phosphorylation after 15 mins by Alphascreen Surefire assay. The format is cell-based.

Test [6] addresses T5, Muscarinic acetylcholine receptor M4 (Homo sapiens, UniProt P08173).
T5 sequence (P08173 whole entry): T1 sequence (whole entry)
Nature of the test: Displacement of [3H]-NMS from recombinant muscarinic M4 receptor (unknown origin) expressed in CHOK1 cells after 60 mins by liquid scintillation counting analysis. The class given is cell-based, CHO-K1.

Test [7] deals with T2, Muscarinic acetylcholine receptor M3. Nature of the test: Displacement of [3H]-NMS from recombinant muscarinic M3 receptor (unknown origin) expressed in CHOK1 cells after 60 mins by liquid scintillation counting analysis. The class given is cell-based, CHO-K1.
Target sequence in this assay (P20309 whole entry): as the sequence (P20309 whole entry, looked up) above
Test [8] has as its target T6, Muscarinic acetylcholine receptor M2 (Homo sapiens, UniProt P08172).
T6 sequence (P08172 whole entry): T3 sequence (whole entry)
Nature of the test: Displacement of [3H]-NMS from recombinant muscarinic M2 receptor (unknown origin) expressed in CHOK1 cells after 60 mins by liquid scintillation counting analysis. The class given is cell-based, CHO-K1.

`COc1cc(OC)cc(N2CCNCC2)c1`: the inhibition constant (Ki) – broadly, the equilibrium dissociation constant of an inhibitor or competing ligand from its target – in test [1] was 1580 nM.
Same read-out and setting: in the case of `CSc1nc(N2CCNCC2)c2sc3c(c2n1)CCCC3` it was 200 nM.
Turning to `Clc1cc(Cl)cc(N2CCNCC2)c1`, the outcome in test [2], in test [3], in test [4] and in test [5] was inactive. Besides, the Ki in test [6] was 31600 nM; in test [7] it was 7940 nM; in test [1], 85.1 nM.
Turning to `Cc1ccc(N2CCNCC2)cc1C`, the inhibition constant Ki in test [1] is 741 nM.
With `Cc1cc(N2CCNCC2)nc2ccccc12`, the result in test [2], in test [3], in test [4] and in test [5] was inactive. Besides, the inhibitory constant (Ki) in test [8] is above 20000 nM; in test [1] it was 224 nM.
Consider `c1csc(-c2cccc3ccc(N4CCNCC4)nc23)c1`, for which the affinity in test [1] corresponds to a Ki of 251 nM.
On the same count and under the same terms, the figure for `FC(F)(F)c1ccnc(N2CCNCC2)c1` is 2340 nM; for `Cc1cccc(N2CCNCC2)c1C` it is 537 nM; for `FC(F)(F)c1cc(N2CCNCC2)cc(C(F)(F)F)c1` it is 1260 nM.
As to `c1cc(N2CCNCC2)c2cc[nH]c2c1`, the outcome in test [2], in test [3], in test [4] and in test [5] was inactive. The Ki in test [8] was above 20000 nM; in test [1], 67.6 nM.
For `Cc1cc(N2CCNCC2)c2ccccc2n1`, the affinity in test [1] corresponds to a Ki of 1580 nM.
Molecule `Clc1ccc(N2CCNCC2)cc1Cl` gave a Ki in test [1] of 214 nM.
On to `Clc1cccc(N2CCNCC2)c1Cl`, for which the outcome in test [2], in test [3], in test [4] and in test [5] was inactive. Besides, the inhibition constant Ki is above 20000 nM in test [8] and 107 nM in test [1].
On to `Cc1nc(N2CCNCC2)c2c3c(sc2n1)CC(C)CC3` (stereo unspecified), for which affinity in test [1] was put at a Ki of 676 nM.
`FC(F)(F)c1ccnc(N2CCNCC2)n1` showed a Ki in test [1] of 2510 nM.
